Source: EP4772634A1, “DOUBLE-STRANDED RNA TARGETING COAGULATION FACTOR XI” (Chia Tai Tianqing Pharmaceutical Group Co., Ltd., priority 2023, dated 2025)

What was measured:
[1] = tested on: human coagulation factor XI protein; assay: In vivo activity in human coagulation factor XI model mice (Experimental Example 3), plasma FXI protein by ELISA; conditions: humanized mice
Protocol: The humanized mice used in this experimental example were purchased from Cyagen Biosciences Co., Ltd. The humanized mice were randomly divided into groups, with 4 mice per group. The compound and PBS control (pH = 7.2) were administered to each group of mice, respectively. The day of the first administration was designated as day 0 of the experiment. The corresponding compound solutions were administered via a single subcutaneous injection based on animal body weight, at administration doses of 1 mg/kg and 5 mg/kg. PBS control mice were each administered PBS, with an administration volume of 10 mL/kg body weight. Orbital blood was collected before administration and on day 7, day 14, day 28, day 42, and day 63 after administration. Plasma was separated, and the content of the coagulation factor XI protein in the plasma was measured at each time point.
About 165 µL of blood was collected from the orbital veins for plasma collection. A 3.8% trisodium citrate anticoagulant was added to the whole blood in a volume ratio of 1:9 (anticoagulant:[…], v/v), and the mixture was centrifuged at 3000 rpm at 20 °C for 15 min to collect plasma. The content of the coagulation factor XI protein in the plasma obtained from the above groups of mice (test groups administered the compound and PBS control group) was measured using a Human Coagulation Factor XI ELISA kit (Sigma, Cat. No. RAB1385-1KT).
(§1) The coagulation factor XI protein inhibition rate was calculated according to the following equation: [formula]
Table 11 lists the measurement of FXI protein content in animal plasma before and on day 7, day 14, day 28, day 42, and day 63 after a single subcutaneous administration of siRNA ligand conjugates (TD01M01L01, TD02M01L01) at doses of 1 mg/kg and 5 mg/kg to humanized homozygous mice. […] Table 11. In vivo experimental design

[2] = tested on: human coagulation factor XI protein; assay: In vivo activity in human coagulation factor XI model mice (Experimental Example 4), FXI protein by ELISA; conditions: female humanized homozygous mice, single subcutaneous 3 mg/kg
Protocol: The humanized mice used in this experimental example were purchased from Cyagen Biosciences Co., Ltd. The female humanized homozygous mice were randomly divided into groups, with 4 mice per group. The compound and PBS control (pH = 7.2) were administered to each group of mice, respectively. The day of the first administration was designated as day 0 of the experiment. The corresponding compound solutions were administered via a single subcutaneous injection based on animal body weight, at an administration dose of 3 mg/kg. PBS control mice were each administered PBS, with an administration volume of 10 mL/kg body weight. Orbital blood was collected before administration and on day 3, day 7, day 14, day 21, day 28, day 42, day 56, and day 70 after administration. Serum was separated, and the content of the coagulation factor XI protein in the serum at each time point was measured using a Human Coagulation Factor XI ELISA kit (Thermo, Batch No. 2350072722, Cat. No. EH118RB).
as §1
Table 13 lists the measurement of coagulation factor XI protein content in animal plasma before and on day 3, day 7, day 14, day 21, day 28, day 42, day 56, and day 70 after a single subcutaneous administration of siRNA ligand conjugates at a dose of 3 mg/kg to humanized homozygous mice. […] Table 13. In vivo experimental design

[3] = tested on: human coagulation factor XI protein; assay: In vivo activity in AAV-FXI model mice, serum FXI protein by ELISA; conditions: AAV-FXI mice (C57BL/6 male), single subcutaneous 3 mg/kg
Protocol: 4-6 week old C57BL/6 male mice were injected via the tail vein with 1 × 10^11 vg of AAV8-FXI (WZ Biosciences). On day 28 after modeling, mice with an hFXI protein content of greater than 100 ng/mL were selected. The mice were randomly divided into groups based on body weight and were injected with 3 mg/kg of the dsRNA ligand conjugate of the present application (amount calculated based on siRNA only) on day 0. Orbital blood was collected on day 7, day 14, day 35, and day 56. Serum was separated, and the content of the coagulation factor XI protein in the serum at each time point was measured using a Human Coagulation Factor XI ELISA kit (Thermo, Cat. No. EH118RB).
as §1
The content of the coagulation factor XI protein in animal serum was measured before and on day 7, day 14, day 35, and day 56 after a single subcutaneous administration of the dsRNA ligand conjugate of the present application at a dose of 3 mg/kg to AAV-FXI mice (see Table 15). […] Table 15. In vivo experimental design

[4] = single subcutaneous 1 mg/kg, D7
[5] = single subcutaneous 1 mg/kg, D14
[6] = single subcutaneous 1 mg/kg, D28
[7] = single subcutaneous 1 mg/kg, D42
[8] = single subcutaneous 1 mg/kg, D63
[9] = single subcutaneous 5 mg/kg, D7
[10] = single subcutaneous 5 mg/kg, D14
[11] = single subcutaneous 5 mg/kg, D28
[12] = single subcutaneous 5 mg/kg, D42
[13] = single subcutaneous 5 mg/kg, D63

Substance	Relative inhibition rate (%) of FXI protein [1, 4] [%]	Relative inhibition rate (%) of FXI protein [1, 5] [%]	Relative inhibition rate (%) of FXI protein [1, 6] [%]	Relative inhibition rate (%) of FXI protein [1, 7] [%]	Relative inhibition rate (%) of FXI protein [1, 8] [%]	Relative inhibition rate (%) of FXI protein [1, 9] [%]	Relative inhibition rate (%) of FXI protein [1, 10] [%]	Relative inhibition rate (%) of FXI protein [1, 11] [%]	Relative inhibition rate (%) of FXI protein [1, 12] [%]	Relative inhibition rate (%) of FXI protein [1, 13] [%]	Relative inhibition rate (%) of FXI protein ([3]; D7) [%]	Relative inhibition rate (%) of FXI protein ([3]; D14) [%]	further results
TD01M01L01: siRNA ligand conjugate: TD01M01 with L01 (GalNAc) ligand at 3' end of sense strand SEQ ID NO 29; antisense SEQ ID NO 30 (sense GATCTCCAACTAAAATACT; antisense AGTATTTTAGTTGGAGATCCG; GalNAc L01 ligand at sense 3' end, 2'-OMe/2'-F, pattern not given here)	58.1	67.5	58.6	68.8	41.3	90.5	92.8	89.5	91.8	74.4			
TD01M02L01: siRNA ligand conjugate: TD01M02 with L01 (GalNAc) ligand at 3' end of sense strand SEQ ID NO 31; antisense SEQ ID NO 32 (sense GATCTCCAACTAAAATACT; antisense AGTATTTTAGTTGGAGATCCG; GalNAc L01 ligand at sense 3' end, 2'-OMe/2'-F, pattern not given here)	65.1	67.4	62.5	69.3	44.6	90.9	93.1	92.4	93.1	76.6			Relative inhibition rate (%) of FXI protein ([2]; D3): 69.3%; Relative inhibition rate (%) of FXI protein ([2]; D7): 88.5%; Relative inhibition rate (%) of FXI protein ([2]; D14): 91.8%; Relative inhibition rate (%) of FXI protein ([2]; D21): 91.7%; Relative inhibition rate (%) of FXI protein ([2]; D28): 91.3%; Relative inhibition rate (%) of FXI protein ([2]; D42): 86.1%; Relative inhibition rate (%) of FXI protein ([2]; D56): 76.1%; Relative inhibition rate (%) of FXI protein ([2]; D70): 68.9%
TD02M01L01: siRNA ligand conjugate: TD02M01 with L01 (GalNAc) ligand at 3' end of sense strand SEQ ID NO 33; antisense SEQ ID NO 34 (sense GGATGATTTTCTTATATCA; antisense TGATATAAGAAAATCATCCTG; GalNAc L01 ligand at sense 3' end, 2'-OMe/2'-F, pattern not given here)	61.5	63.9	49.2	52.9	41.1	91.8	94.0	87.8	89.4	69.0			
TD05M02L01: dsRNA ligand conjugate: TD05M02 with L01 (GalNAc) ligand at 3' end of sense strand SEQ ID NO 47; antisense SEQ ID NO 48 (sense CTTTTCAGGATGATTTTCT; antisense AGAAAATCATCCTGAAAAGAC; GalNAc L01 ligand at sense 3' end, 2'-OMe/2'-F, pattern not given here)											96.3	96.6	Relative inhibition rate (%) of FXI protein ([3]; D35): 81.7%; Relative inhibition rate (%) of FXI protein ([3]; D56): 51.0%
TD12M02L01: dsRNA ligand conjugate: TD12M02 with L01 (GalNAc) ligand at 3' end of sense strand SEQ ID NO 75; antisense SEQ ID NO 76 (sense TGATTTTCTTATATCAAGT; antisense ACTTGATATAAGAAAATCATC; GalNAc L01 ligand at sense 3' end, 2'-OMe/2'-F, pattern not given here)											88.4	88.0	
